Test results: the supplement of paper PMC11919725

What was measured:
Jurkat [1] = experiment: confluency relative to DMSO, 18 h (ratio); higher = more viable
How it was run: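 Jurkat cells or primary CD4+/CD8+ T cells, either naive or activated for 48 h with CD3/CD28 Dynabeads, were exposed to compound from 1 nM to 10 µM in log10 steps for 18 h at 37 °C and 5% CO2. Afterwards, 100 µl of each suspension was moved into 96-well plates containing IncuCyte Cytotox Dye and alamarBlue. Phase-contrast images were taken at ×10, five per well, every hour for 3 h. Confluency was derived from these images with the IncuCyte Basic Analyzer, and values are expressed relative to the mean of the control wells.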

Jurkat [2] = experiment: cytotoxicity relative to DMSO, 18 h (ratio); higher = less cell death (drugs called cytotoxic fall below 1)
How it was run: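 Jurkat or primary CD4+/CD8+ T cells (naive, or activated 48 h with CD3/CD28 Dynabeads) were treated 18 h with compound at 1 nM–10 µM (log10 steps) at 37 °C, 5% CO2. Then 100 µl of suspension went into 96-well plates with IncuCyte Cytotox Dye (250 nM final). Cytotoxicity came from IncuCyte fluorescence imaging (×10, five images per well, hourly over 3 h). Signals were corrected for confluency, then normalised to mean DMSO controls.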

Jurkat [3] = experiment: metabolic activity relative to DMSO, 18 h (ratio); higher = more viable
How it was run: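 Metabolic activity values are normalised to the average of vehicle control wells. They come from Jurkat or primary CD4+/CD8+ T cells (naive, or activated 48 h with CD3/CD28 Dynabeads) treated for 18 h at 37 °C, 5% CO2 with compound over 1 nM–10 µM in log10 steps. Then 100 µl of each suspension was mixed in 96-well plates with alamarBlue (10% v/v final), and fluorescence at 544 nm excitation and 584 nm emission was recorded on a FluoStar Omega 3.5 h later.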

Row | SMILES | confluency (Jurkat [1]; 1 nM) | confluency (Jurkat [1]; 10 nM) | confluency (Jurkat [1]; 100 nM) | confluency (Jurkat [1]; 1000 nM) | confluency (Jurkat [1]; 10000 nM) | cytotoxicity (Jurkat [2]; 1 nM) | cytotoxicity (Jurkat [2]; 10 nM) | cytotoxicity (Jurkat [2]; 100 nM) | cytotoxicity (Jurkat [2]; 1000 nM) | cytotoxicity (Jurkat [2]; 10000 nM) | metabolic activity (Jurkat [3]; 1 nM) | metabolic activity (Jurkat [3]; 10 nM) | metabolic activity (Jurkat [3]; 100 nM) | metabolic activity (Jurkat [3]; 1000 nM) | metabolic activity (Jurkat [3]; 10000 nM)
1 | O=C1CCC(N2Cc3c(OCc4ccc(CN5CCOCC5)cc4)cccc3C2=O)C(=O)N1 (stereo not given) [Iberdomide] | 0.898 | 0.805 | 0.811 | 0.8 | 0.823 | 0.885 | 0.749 | 0.877 | 0.796 | 0.865 | 0.987 | 0.949 | 1.02 | 1.11 | 1.21
2 | CCC(Nc1ncnc2nc[nH]c12)c1nc2cccc(F)c2c(=O)n1-c1ccccc1 (stereo not given) [Idelalisib] | 1.07 | 1.09 | 1.1 | 0.986 | 1.07 | 1.05 | 1.08 | 1.09 | 0.927 | 1 | 0.825 | 0.959 | 0.958 | 0.983 | 0.993
3 | CC(C)CC(NC(=O)CNC(=O)c1cc(Cl)ccc1Cl)B(O)O (stereo not given) [Ixazomib] | 0.945 | 0.97 | 1.12 | 0.922 | 1.09 | 0.958 | 1 | 1.03 | 0.682 | 0.631 | 0.928 | 1.04 | 0.924 | 0.382 | 0.121
4 | Cc1cc(C)cc(C(=O)NOCCCCCC(=O)NO)c1 [LMK235] | 0.982 | 1.03 | 1.06 | 1.16 | 1.3 | 0.947 | 0.991 | 1.08 | 1.04 | 1.26 | 0.997 | 0.979 | 1.04 | 0.905 | 0.694
5 | Nc1cccc2c1CN(C1CCC(=O)NC1=O)C2=O (stereo not given) [Lenalidomide] | 0.996 | 0.912 | 0.993 | 0.96 | 0.93 | 0.945 | 0.905 | 0.96 | 0.912 | 0.892 | 0.931 | 0.895 | 0.809 | 0.905 | 0.96
6 | COc1cc(C)[nH]c(=O)c1CNC(=O)c1c(C)n(C(C)C2CCN(CC(F)(F)F)CC2)c2ccccc12 (stereo not given) [Lirametostat] | 1.01 | 1.03 | 1.02 | 0.984 | 0.929 | 1 | 1 | 1.03 | 0.972 | 0.892 | 1.01 | 1.02 | 1.01 | 1.02 | 0.856
7 | CC(C)CC(C=O)NC(=O)C(CC(C)C)NC(=O)C(CC(C)C)NC(=O)OCc1ccccc1 (stereo not given) [MG-132] | 1.01 | 0.99 | 1.02 | 0.605 | 0.69 | 0.953 | 0.939 | 0.989 | 0.471 | 0.461 | 0.799 | 0.84 | 0.938 | 0.359 | 0.11
8 | O=C(O)C1(Cc2cccc(Nc3nccs3)n2)CCC(Oc2cccc(Cl)c2F)CC1 (stereo not given) [MK-5108] | 1.01 | 1.02 | 0.89 | 0.865 | 0.868 | 0.966 | 1.05 | 0.922 | 0.881 | 0.932 | 1.02 | 1.05 | 0.922 | 0.763 | 0.756
9 | O=C(O)c1ccc(Nc2ncc3c(n2)-c2ccc(Cl)cc2C(c2c(F)cccc2F)=NC3)cc1 [MLN-8054] | 0.953 | 1.06 | 1.03 | 0.879 | 0.791 | 0.913 | 1.02 | 0.967 | 0.812 | 0.623 | 0.971 | 0.993 | 0.955 | 0.913 | 0.558
10 | CN(Cc1cnc2nc(N)nc(N)c2n1)c1ccc(C(=O)NC(CCC(=O)O)C(=O)O)cc1 (stereo not given) [Methotrexate] | 0.943 | 0.828 | 0.619 | 0.576 | 0.603 | 1.05 | 0.897 | 0.666 | 0.571 | 0.585 | 1.12 | 1.08 | 1 | 0.865 | 0.746
11 | CNC(=O)c1nn(C)c2c1C(C)(C)Cc1cnc(Nc3ccc(N4CCN(C)CC4)cc3)nc1-2 [Milciclib] | 1.01 | 0.985 | 1.01 | 0.969 | 1.01 | 0.986 | 0.958 | 0.956 | 0.794 | 0.897 | 1.05 | 0.965 | 0.953 | 0.684 | 0.809
12 | Nc1ccccc1NC(=O)c1ccc(CNc2nccc(-c3cccnc3)n2)cc1 [Mocetinostat] | 1 | 1.02 | 1 | 0.76 | 0.886 | 0.997 | 1.01 | 0.975 | 0.726 | 0.636 | 0.892 | 0.841 | 0.822 | 0.747 | 0.3
13 | CCNC(=O)CC1N=C(c2ccc(Cl)cc2)c2cc(OC)ccc2-n2c(C)nnc21 (stereo not given) [Molibresib] | 1.02 | 1.03 | 1.03 | 1 | 0.879 | 0.992 | 1 | 1.07 | 0.955 | 0.848 | 0.916 | 1.06 | 1.18 | 0.878 | 0.887
14 | O=C1C=CC(=O)C2=C1C1c3ccccc3C2c2ccccc21 [NFAT activation inhibitor III] | 1 | 0.877 | 0.804 | 0.97 | 0.864 | 0.945 | 0.784 | 0.732 | 1.04 | 0.839 | 1.04 | 1.04 | 1.12 | 1.01 | 0.834
